Measured values as given in PMC8099913, “FoldAffinity: binding affinities from nDSF experiments” (Scientific Reports, 2021).
“And” between values parts separate entries of the source, which are not always exact repeats. Equal values may be shown once. Read-outs that look alike come from different tables or passages of the source.

Columns and labels:
Pcs60 [1] = target: T1, Pcs60 (Saccharomyces cerevisiae, UniProt P38137); assay type: binding, S. cerevisiae
Pcs60 [2] = target: T1, Pcs60; assay type: binding, S. cerevisiae; conditions: read-out: Kd (MST); Tref 21 °C; 1:1 model
Procedure: MST curves for Pcs60/ γ S-ATP were acquired with a Nanotemper Monolith NT.LabelFree (Nanotemper) using the MO.Control v1.6 acquisition software and Monolith NT.LabelFree capillaries. The same protein concentration and buffer conditions as for the nDSF experiments were used (9.9 μM). 16 different ligand concentrations (serial dilution with a factor of 2) in the range between 5 mM and 0.15 μM were used for each measurement. For the MST experiment the IR laser power was set to 20% and the UV laser power to 1%. In total, two independent measurements were done plus an additional repeat. The data was exported as xlsx and analyzed and plotted with a self-written Python script. The regions for Fnorm determination were − 1–0 s for “cold” and 19–20 s for “hot”. For each curve Fnorm was calculated as the ratio between the mean values in the “hot” and “cold” region. In the final step, Fnorm was fitted to a 1:1 binding model. The self-written Python scripts for spectral analysis including MST analysis are available online: https://github.com/steniegit/libspec

wild-type Pcs60 = wild-type Pcs60 (Saccharomyces cerevisiae, UniProt P38137); experiment: biochemical; assay type: binding, S. cerevisiae
wild-type Pcs60, sequence (P38137 whole entry): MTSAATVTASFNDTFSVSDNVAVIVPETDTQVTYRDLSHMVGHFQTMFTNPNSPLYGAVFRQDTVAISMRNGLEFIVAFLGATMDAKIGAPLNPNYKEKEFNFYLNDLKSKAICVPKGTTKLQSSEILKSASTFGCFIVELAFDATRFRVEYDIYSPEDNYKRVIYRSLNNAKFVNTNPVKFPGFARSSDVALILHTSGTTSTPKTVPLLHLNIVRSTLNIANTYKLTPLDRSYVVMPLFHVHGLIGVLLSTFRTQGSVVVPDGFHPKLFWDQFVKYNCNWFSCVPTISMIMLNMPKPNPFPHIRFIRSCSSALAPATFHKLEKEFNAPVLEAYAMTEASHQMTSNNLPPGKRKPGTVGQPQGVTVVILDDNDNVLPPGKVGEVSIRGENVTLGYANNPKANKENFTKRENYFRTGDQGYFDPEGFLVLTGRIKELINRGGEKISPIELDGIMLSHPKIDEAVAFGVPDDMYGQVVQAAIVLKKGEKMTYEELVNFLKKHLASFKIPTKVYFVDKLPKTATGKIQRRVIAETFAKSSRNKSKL
Procedure: (§1) The following protocol was used for all nDSF experiments with Pcs60 and the nucleotide ligand γS-ATP. 14 dilutions of the nucleotide ligand (γS-ATP) starting at 5 mM at a constant Pcs60 concentration of 9.9 μM were prepared in buffer (50 mM HEPES pH 7.5, 150 mM NaCl, 0.5 mM TCEP). […] In addition to the ligand dilutions, a pure Pcs60 sample in the same buffer was used. If not stated otherwise, the measurements were run as triplicates (in total 45 temperature curves). The LED laser power for the experiments was between 70 and 80%.
Figure S29. (A) nDSF binding study for wild-type Pcs60 WT/γS-ATP. The region in the colored box was used for isothermal
analysis. […] (C) Isothermal analysis for […]

Pcs60 K523A mutant = Pcs60 K523A mutant (Saccharomyces cerevisiae, UniProt P38137, K523A); experiment: biochemical; assay type: binding, S. cerevisiae
Pcs60 K523A mutant, sequence (P38137 whole entry K523A): as the sequence (P38137 whole entry) above, with K523A counted along it
Procedure: as §1

Pcs60 [3] = target: T1, Pcs60; experiment: Differential scanning calorimetry (DSC) of Pcs60 with γS-ATP; assay type: binding, S. cerevisiae; conditions: Pcs60 180 µM, γS-ATP 192 µM
Procedure: 2Differential scanning calorimetry of Pcs60
Figure S24. Differential scanning calorimetry (DSC) of Pcs60 (180 µM) in absence and presence of its ligand γS-ATP (192 µM). Here the raw data is shown before baseline correction. […] The […]
temperature of the ﬁrst transition is shifted by ligand binding from 41.5 to 43.4◦C. […]
affected upon ligand binding. Since the two transitions overlap, it was not possible to extract a reliable value of the heat capacity change upon unfolding ∆Cp.
(also on this page, place not known: 2 30 40 50 60 70 Temperature / C 11 10 9 8 7 6 DP / mJ/min PCS60 PCS60 + S-ATP Differential)
(1 picture or pasted object on this page, not shown here)

EG1 = EG1 (Homo sapiens, UniProt Q9BW91); assay type: binding; conditions: ADPR 2 mM to 24 nM
EG1, sequence (Q9BW91 59-350): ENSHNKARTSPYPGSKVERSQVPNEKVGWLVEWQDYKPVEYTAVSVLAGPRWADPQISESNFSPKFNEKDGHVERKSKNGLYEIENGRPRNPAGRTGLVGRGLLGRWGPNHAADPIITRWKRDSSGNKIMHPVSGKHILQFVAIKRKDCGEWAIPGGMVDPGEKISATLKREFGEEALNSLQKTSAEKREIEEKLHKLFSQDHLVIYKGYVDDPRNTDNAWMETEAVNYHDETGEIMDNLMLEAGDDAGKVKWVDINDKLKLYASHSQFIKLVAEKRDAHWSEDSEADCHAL

SS1 = SS1 (Danio rerio, UniProt A0A0R4IMY7); assay type: binding, zebrafish
SS1, sequence (A0A0R4IMY7 32-415): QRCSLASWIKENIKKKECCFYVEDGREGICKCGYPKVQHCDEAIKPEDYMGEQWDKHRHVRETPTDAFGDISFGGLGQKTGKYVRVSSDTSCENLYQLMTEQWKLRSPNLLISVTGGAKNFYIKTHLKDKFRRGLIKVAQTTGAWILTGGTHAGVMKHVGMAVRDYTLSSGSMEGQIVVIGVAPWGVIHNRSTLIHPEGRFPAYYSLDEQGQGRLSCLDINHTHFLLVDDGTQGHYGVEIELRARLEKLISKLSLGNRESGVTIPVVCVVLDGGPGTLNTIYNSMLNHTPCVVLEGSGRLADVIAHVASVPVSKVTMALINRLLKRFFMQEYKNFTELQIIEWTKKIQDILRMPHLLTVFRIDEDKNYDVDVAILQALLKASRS

T1 sequence (P38137 whole entry): as the sequence (P38137 whole entry) above

## Nc1ncnc2c1ncn2[C@@H]1O[C@H](CO[P@](=O)(O)O[P@](=O)(O)O[P@@](=O)(O)S)[C@@H](O)[C@H]1O [γS-ATP]
Pcs60 [1]; T=36 °C, fitted ∆Cp = 6.7 kcal/molK, read-out: Kd (isothermal analysis, fitted ∆Cp)
  Kd: 14.9 µM
Pcs60 [1]; T=38 °C, fitted ∆Cp = 6.7 kcal/molK, read-out: Kd (isothermal analysis, fitted ∆Cp)
  Kd: 15.4 µM
Pcs60 [1]; T=40 °C, fitted ∆Cp = 6.7 kcal/molK, read-out: Kd (isothermal analysis, fitted ∆Cp)
  Kd: 17.1 µM
Pcs60 [1]; T=42 °C, fitted ∆Cp = 6.7 kcal/molK, read-out: Kd (isothermal analysis, fitted ∆Cp)
  Kd: 21.9 µM
Pcs60 [1]; T=44 °C, fitted ∆Cp = 6.7 kcal/molK, read-out: Kd (isothermal analysis, fitted ∆Cp)
  Kd: 32.4 µM
Pcs60 [1]; T=46 °C, fitted ∆Cp = 6.7 kcal/molK, read-out: Kd (isothermal analysis, fitted ∆Cp)
  Kd: 41.1 µM
Pcs60 [1]; T=48 °C, fitted ∆Cp = 6.7 kcal/molK, read-out: Kd (isothermal analysis, fitted ∆Cp)
  Kd: 27.8 µM
Pcs60 [1]; Tiso 40 °C, ∆Cp = 0, read-out: Kd (isothermal analysis of nDSF)
  Kd: 18.4 µM
Pcs60 [1]; first transition
  Tm (melting temperature range of binding study): 37–48 °C
Pcs60 [1]; heating rate 1 °C/min, ∆Cp default 0 kcal/mol, Tsel 40 °C, read-out: Kd,Tsel
  Kd: 18 µM
Pcs60 [1]; heating rate 1 °C/min, ∆Cp fitted 6.7 kcal/mol, Tsel 38 °C, read-out: Kd,Tsel
  Kd: 17 µM
Pcs60 [1]; heating rate 3 °C/min, ∆Cp default 0 kcal/mol, Tsel 39 °C, read-out: Kd,Tsel
  Kd: 16 µM
Pcs60 [1]; heating rate 3 °C/min, ∆Cp fitted 6.7 kcal/mol, Tsel 39 °C, read-out: Kd,Tsel
  Kd: 19 µM
Pcs60 [1]; heating rate 5 °C/min, ∆Cp default 0 kcal/mol, Tsel 39 °C, read-out: Kd,Tsel
  Kd: 23 µM
Pcs60 [1]; heating rate 5 °C/min, ∆Cp fitted 6.7 kcal/mol, Tsel 40 °C, read-out: Kd,Tsel
  Kd: 24 µM
Pcs60 [1]; read-out: Kd,app,model1 (melting temperature analysis), single-site model, Eq. (1), first transition
  Kd: 144 µM
Pcs60 [1]; read-out: Kd,app,model2 (melting temperature analysis), model 2, Eq. (4), first transition
  Kd: 10.2 µM
Pcs60 [2]
  Kd: 16 µM
wild-type Pcs60; T=36 °C, ∆Cp = 0, read-out: Kd (isothermal analysis)
  Kd: 19.7 µM
wild-type Pcs60; T=38 °C, ∆Cp = 0, read-out: Kd (isothermal analysis)
  Kd: 20.2 µM
wild-type Pcs60; T=40 °C, ∆Cp = 0, read-out: Kd (isothermal analysis)
  Kd: 21 µM
wild-type Pcs60; T=42 °C, ∆Cp = 0, read-out: Kd (isothermal analysis)
  Kd: 22.5 µM
wild-type Pcs60; T=44 °C, ∆Cp = 0, read-out: Kd (isothermal analysis)
  Kd: 24.9 µM
wild-type Pcs60; T=46 °C, ∆Cp = 0, read-out: Kd (isothermal analysis)
  Kd: 28.7 µM
wild-type Pcs60; T=48 °C, ∆Cp = 0, read-out: Kd (isothermal analysis)
  Kd: 39.5 µM
wild-type Pcs60; T=50 °C, ∆Cp = 0, read-out: Kd (isothermal analysis)
  Kd: 78 µM
wild-type Pcs60; T=52 °C, ∆Cp = 0, read-out: Kd (isothermal analysis)
  Kd: 146 µM
wild-type Pcs60; isothermal analysis, read-out: Kd values (summary in legend)
  Kd: ~20 µM
wild-type Pcs60; read-out: Kd,app Model 1 (melting temperature analysis)
  Kd: 195 µM
wild-type Pcs60; read-out: Kd,app Model 2 (melting temperature analysis)
  Kd: 15.6 µM
Pcs60 K523A mutant; Kd (isothermal analysis)
  Kd: 252 µM and 297 µM and 246 µM and 236 µM and 227 µM and 219 µM and 212 µM and 221 µM
Pcs60 K523A mutant; read-out: Kd (isothermal analysis of nDSF)
  Kd: 213 µM
Pcs60 K523A mutant; read-out: Kd, melting temperature analysis model 1
  Kd: 741 µM
Pcs60 K523A mutant; read-out: Kd, melting temperature analysis model 2
  Kd: 117 µM
Pcs60 [3]
  second transition at […] (DSC) upon ligand binding: not
Pcs60 [3]; 41.5 °C in absence of ligand
  temperature of the first transition (DSC) upon ligand binding: 43.4 °C

## adenosine diphosphate ribose [ADPR]
EG1
  Tm (melting temperature range of binding study): 51–56 °C
SS1
  Tm (melting temperature range of binding study): 50–60 °C
